Numbers after ± are expanded uncertainties.
Assay: xn = mol fraction of the nth substance listed
Conditions: 101 kPa, Liquid

CNC(C)=O [N-methylacetamide] + CC#N
mass density [kg/m3]
Conditions	293.15 K	298.15 K	303.15 K	308.15 K	313.15 K	318.15 K
x2 = 0	958.4 ± 0.9	954.2 ± 1	950.1 ± 1	945.9 ± 1	941.7 ± 1.1	937.6 ± 1.1
x2 = 0.0637	951.5 ± 0.9	947.2 ± 1	942.9 ± 1	938.6 ± 1	934.3 ± 1.1	930 ± 1.1
x2 = 0.1232	944.8 ± 0.9	940.3 ± 0.9	935.9 ± 1	931.4 ± 1	927 ± 1.1	922.6 ± 1.1
x2 = 0.1926	936.5 ± 0.9	931.9 ± 0.9	927.3 ± 1	922.8 ± 1	918.2 ± 1.1	913.7 ± 1.1
x2 = 0.2665	927.2 ± 0.9	922.5 ± 0.9	917.8 ± 1	913.1 ± 1	908.4 ± 1	903.7 ± 1.1
x2 = 0.3244	919.5 ± 0.9	914.7 ± 0.9	909.9 ± 1	905.1 ± 1	900.3 ± 1	895.5 ± 1.1
x2 = 0.3702	913.2 ± 0.9	908.3 ± 0.9	903.4 ± 0.9	898.5 ± 1	893.6 ± 1	888.7 ± 1.1
x2 = 0.4365	903.5 ± 0.8	898.5 ± 0.9	893.5 ± 0.9	888.5 ± 1	883.5 ± 1	878.5 ± 1
x2 = 0.4925	894.7 ± 0.8	889.6 ± 0.9	884.5 ± 0.9	879.4 ± 1	874.3 ± 1	869.3 ± 1
x2 = 0.5412	886.6 ± 0.8	881.4 ± 0.9	876.2 ± 0.9	871.1 ± 0.9	865.9 ± 1	860.8 ± 1
x2 = 0.58	879.8 ± 0.8	874.6 ± 0.9	869.4 ± 0.9	864.2 ± 0.9	859 ± 1	853.8 ± 1
x2 = 0.6301	870.6 ± 0.8	865.3 ± 0.8	860.1 ± 0.9	854.9 ± 0.9	849.6 ± 1	844.4 ± 1
x2 = 0.6766	861.6 ± 0.8	856.3 ± 0.8	851 ± 0.9	845.7 ± 0.9	840.4 ± 0.9	835.1 ± 1
x2 = 0.7613	843.8 ± 0.8	838.4 ± 0.8	833 ± 0.8	827.7 ± 0.9	822.3 ± 0.9	816.9 ± 1
x2 = 0.8305	827.8 ± 0.7	822.4 ± 0.8	817 ± 0.8	811.6 ± 0.9	806.2 ± 0.9	800.8 ± 0.9
x2 = 0.9203	804.8 ± 0.7	799.5 ± 0.8	794.2 ± 0.8	788.8 ± 0.8	783.4 ± 0.9	778 ± 0.9

— the NIST ThermoML archive (doi:10.1016/j.jct.2006.01.015)
